From patent US8283373B2, “Inhibitors of cytosolic phospholipase A2” (Pfizer Inc., priority 2005, dated 2012)

How the values were obtained:
[1] = molecular target: T1, cPLA2α (Homo sapiens, UniProt P47712); experiment: GLU Micelle Assay; assay type: biochemical
T1 sequence (P47712 1-749): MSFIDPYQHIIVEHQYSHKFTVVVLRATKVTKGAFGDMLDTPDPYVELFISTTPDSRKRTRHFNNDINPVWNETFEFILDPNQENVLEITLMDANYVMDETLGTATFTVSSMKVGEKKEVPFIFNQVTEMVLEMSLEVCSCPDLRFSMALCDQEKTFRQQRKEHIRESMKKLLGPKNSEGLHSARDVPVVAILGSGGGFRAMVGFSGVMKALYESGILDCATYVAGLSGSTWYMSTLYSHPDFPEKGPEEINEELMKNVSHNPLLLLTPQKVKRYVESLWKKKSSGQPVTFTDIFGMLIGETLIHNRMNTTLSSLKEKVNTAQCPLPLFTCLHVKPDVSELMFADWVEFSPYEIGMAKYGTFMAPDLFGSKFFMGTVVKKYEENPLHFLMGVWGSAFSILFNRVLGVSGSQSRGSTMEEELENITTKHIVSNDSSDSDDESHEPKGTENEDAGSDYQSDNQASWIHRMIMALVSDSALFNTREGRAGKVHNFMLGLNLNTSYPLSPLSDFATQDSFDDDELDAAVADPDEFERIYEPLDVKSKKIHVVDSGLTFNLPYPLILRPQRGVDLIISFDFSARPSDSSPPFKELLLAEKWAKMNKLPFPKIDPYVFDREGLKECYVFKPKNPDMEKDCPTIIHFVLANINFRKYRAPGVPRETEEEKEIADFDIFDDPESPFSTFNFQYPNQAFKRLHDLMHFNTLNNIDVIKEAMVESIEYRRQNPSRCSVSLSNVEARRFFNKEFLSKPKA
Method in brief: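 Fluorogenic micelle assay with 1 μg/ml cPLA2α and 90 μM GLU substrate plus 120 μM DTPC in 940 μM Triton X-100, 50 mM Hepes pH 7.4, 0.3 mM EDTA, 1 mM CaCl2, 300 mM KCl. Fluorescence (ex 355/em 460) was read every 4 min for 84 min. Percent inhibition came from slopes relative to positive and negative controls.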

[2] = test system: TXB2; experiment: Rat Whole Blood Assay (A23187-stimulated TXB2); assay type: cell-based; conditions: Rattus norvegicus; A23187 5 μM
Method in brief: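 Heparinized male Sprague-Dawley rat blood pre-incubated 15 min at 37 °C with compound or DMSO, then stimulated with 5 μM (final) A23187 for 10 min at 37 °C. Stopped with 20 mM EDTA; TXB2 in methanol-extracted plasma measured by ELISA.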

[3] = test system: Human platelet aggregation; experiment: Platelet Function Analyzer (PFA-100) study; assay type: cell-based; conditions: whole human blood
Method: Human platelet aggregation was studied using the platelet function analyzer (PFA-100®). Human blood was collected from volunteers who had denied taking any platelet inhibitory medications over the previous two weeks. Blood was collected in 3.2% sodium citrate Vacutainer tubes (Becton Dickinson). Tubes were inverted 5 times and the blood was transferred to 15 ml polypropylene conical tubes. […] Tubes were inverted 10 times to mix, and allowed to sit at room temperature for 10 minutes prior to run in PFA-100. The manufacturers protocol was followed for the PFA-100 using Collagen/Epinephrine cartridges (0.5% DMSO alone in whole blood gave closure times of 125+/−13.9 seconds). Maximum closure time is 300 seconds, as set by the manufacturer.
All compounds were efficacious in the platelet function assay.

[4] = test system: FeCl3-induced arterial thrombosis; experiment: FeCl3-induced model of arterial thrombosis; assay type: in vivo; conditions: rat, 25 mg/kg oral gavage 2 h before FeCl3 injury
Method: Two hours prior to induction of vascular injury, Sprague Dawley outbreed rats (80-100 gram of body weight) received 4-(3-{5-chloro-1-(diphenylmethyl)-2-[2-({[2-fluoro-6-(trifluoromethyl)benzyl]sulfonyl}amino)ethyl]-1H-indol-3-yl}propyl)benzoic acid (Example 14) or 4-(3-{5-chloro-1-(diphenylmethyl)-2-[2-({[2-(trifluoromethoxy)benzyl]sulfonyl}amino)ethyl]-1H-indol-3-yl}propyl)benzoic acid (Example 25) at a dose of 25 mg/kg by oral gavage. The total volume of gavage was 0.5 ml. The control group of animals had been treated with only vehicle. Fifteen minutes before vascular injury rats were anesthetized by an intramuscular injection of a ketamine/xylazyne mixture. Following anesthesia the left carotid artery was dissected and exposed for further measurements. For induction of prothrombotic injury, a round piece of filter paper (2 mm in diameter) soaked in 10% of FeCl3 solution was applied onto the wall of the exposed vessel. After 5 minutes the filter paper was removed and the 1PRB perivasular Doppler flow probe (Transonic Systems Inc.) was secured around the carotid artery to measure blood flow. Blood flow was recorded for a total period of 30 minutes using Transonic Flow Meter (model TS420, Transonic Systems Inc.) and Windaq data acquisition software.

[5] = test system: serum thromboxane B2; experiment: Thromboxane B2 levels in rats with FeCl3 induced thrombosis; assay type: in vivo, rat; conditions: rats subjected to ferric chloride injury, ELISA
Method: Blood was collected from rats that were dosed with vehicle, the compound of Example 14 or the compound of Example 25, and subjected to the ferric chloride Injury protocol above. Blood was collected from the vena cava and blood coagulation was allowed to take place for 1 hour at 37 degree Celsius. Serum was then isolated and serum thromboxane B2 levels were determined by ELISA.

[6] = test system: experimental autoimmune encephalomyelitis (EAE); experiment: Experimental autoimmune encephalomyelitis (EAE) model of multiple sclerosis; assay type: in vivo, mouse; conditions: administered from the time of immunization, or in mice with or close to EAE
Method: Six groups of B6 mice were immunized with MOG/CFA and injected with pertussis toxin to induce experimental autoimmune encephalomyelitis (EAE), an animal model of Multiple sclerosis. Three groups of mice were treated with vehicle, 4-{3-[1-benzhydryl-5-chloro-2-(2-{[(2,6-dimethylbenzyl)sulfonyl]amino}ethyl)-1H-indol-3-yl]propyl}benzoic acid (Compound A), or 4-{2-[1-benzhydryl-5-chloro-2-(2-{[(3,4-dichlorobenzyl)sulfonyl]amino}-ethyl)-1H-indol-3-yl]ethoxy}benzoic acid (Compound B) from the day of Immunization (orally, 100 mg/kg, twice/day). Another three groups of mice were treated with vehicle, Compound A or Compound B starting on the day of EAE onset (day 15) (orally, 100 mg/kg, twice/day). […] The results are shown in the Table below, wherein mean clinical score is a mean of clinical evaluation of each animal for that particular day.
Animals are Scored as Follows:
• 0—no clinical signs of EAE (no paralysis) • 1—paralysis of tail • 2—paralysis of tail and partial hind leg paralysis • 3—paralysis of tail and complete hind leg paralysis • 4—paralysis of tail, complete hind leg paralysis and a partial front leg paralysis • 5—moribund animal (all four limbs paralyzed, lack of responsiveness, these mice were immediately euthanized).
In addition, the compounds of Examples 14 and 25 were also found to be efficacious in the mouse experimental autoimmune encephalomyelitis (EAE) model of multiple sclerosis. As shown by the data in the Table below, these compounds led to a delayed onset of disease and reduced severity of disease when administered orally in doses as low as 2.5 mg/kg.

[7] = test system: serum thromboxane B2; experiment: Thromboxane B2 levels in the ApoE KO mouse model; assay type: in vivo; conditions: ApoE KO mice, 10 mg/kg by oral gavage; vehicle 267.9±34.3
Method: Blood was collected through the retro-orbital siunus and left to coagulate at 37° C. for one hour. Serum was then isolated and assayed for thromboxane B2 by ELISA.
In a separate experiment, ApoE KO mice were dosed with vehicle or the compound of Example 25 at 10 mg/kg by oral gavage. Blood was collected through the retro-orbital siunus and left to coagulate at 37° C. for one hour. Serum was then isolated and assayed for thromboxane B2 by ELISA.

SMILES	IC50 [1] [nM]	IC50 [2] [nM]	platelet aggregation in human blood, in vitro (PFA-100, FIG. 1) [3]	PFA-100 closure time ([3]; Collagen/Epinephrine cartridges, 1.25 μg/ml)	blood flow and thrombus formation (FIG. 2) [4]	serum thromboxane B2 levels (FIG. 3) [5]	prevention of EAE / reduction of clinical severity [6]	efficacy in PFA-100 platelet function assay ([3]; at concentrations as low as 0.3 μg/ml)	serum Thromboxane concentration [7] [ng/mL]
O=C(O)c1ccc(CCCc2c(CCNS(=O)(=O)Cc3c(F)cccc3C(F)(F)F)n(C(c3ccccc3)c3ccccc3)c3ccc(Cl)cc23)cc1 [Example 14, 4-(3-{5-chloro-1-(diphenylmethyl)-2-[2-({[2-fluoro-6-(trifluoromethyl)benzyl]sulfonyl}amino)ethyl]-1H-indol-3-yl}propyl)benzoic acid]	30	20	inhibition of platelet aggregation	increased closure time	improved blood flow and reduction of thrombus formation	reduction of serum thromboxane B2 levels	can prevent EAE	–	–
O=C(O)c1ccc(CCCc2c(CCNS(=O)(=O)CCc3ccccc3C(F)(F)F)n(C(c3ccccc3)c3ccccc3)c3ccc(Cl)cc23)cc1 [Example 15, 4-[3-(5-chloro-1-(diphenylmethyl)-2-{2-[({2-[2-(trifluoromethyl)phenyl]ethyl}sulfonyl)amino]ethyl}-1H-indol-3-yl)propyl]benzoic acid]	68	120	–	–	improved blood flow and reduction of thrombus formation	–	–	–	–
O=C(O)c1ccc(CCCc2c(CCNS(=O)(=O)Cc3ccccc3OC(F)(F)F)n(C(c3ccccc3)c3ccccc3)c3ccc(Cl)cc23)cc1 [Example 25, 4-(3-{5-chloro-1-(diphenylmethyl)-2-[2-({[2-(trifluoromethoxy)benzyl]sulfonyl}amino)ethyl]-1H-indol-3-yl}propyl)benzoic acid]	13	30	inhibition of platelet aggregation	–	–	reduction of serum thromboxane B2 levels	can prevent EAE	efficacious	9.4 ± 5.0
